Source: patent US20210299079A1, “MONOMETHYL FUMARATE-CARRIER CONJUGATES AND METHODS OF THEIR USE” (Flagship Pioneering Innovations V, Inc., priority 2018, published 2021)
Where a name gives a salt, the structure may show the parent alone.

Legend:
[1] = Stability of conjugates in Simulated Gastric Fluid (SGF); type: in vitro ADME; details: SGF pH 1.6 with pepsin, 37° C., 1 μM compound
Protocol: Assay 1. Stability of conjugates in Simulated Gastric Fluid (SGF). This assay was used to assess the stability of a conjugate in a stomach.
Medium was prepared by dissolving 2 g of sodium chloride in 0.6 L in ultrapure water (MilliQ®, Millipore Sigma, Darmstadt, Germany). The pH was adjusted to 1.6 with 1N hydrochloric acid, and the volume was then adjusted to 1 L with purified water.
60 mg FaSSIF powder (Biorelevant™, London, UK) were dissolved in 500 mL buffer (above). Pepsin was added (0.1 mg/mL) (Millipore Sigma, Darmstadt, Germany), and the solution was stirred. The resulting SGF media were used fresh for each experiment.
(§1) Test compounds were dissolved in DMSO stock to 1 mM. An aliquot of the DMSO stock solution was removed and diluted in the SGF Media in 15 mL falcon tubes to generate a total compound concentration of 1 μM. A 1 mL aliquot was immediately removed and diluted once with 1 volume of acetonitrile for TO timepoint. The mixture was sealed and mixed at 37° C. in an incubator. Aliquots (1 mL) were removed at regular intervals and immediately quenched by the addition of 1 volume of acetonitrile. The resulting samples were analyzed by LC/MS to determine degradation rates in SGF.

[2] = Stability of conjugates in Simulated Intestinal Fluid (SIF); type: in vitro ADME; details: SIF pH 6.7 with pancreatin, 37° C., 1 μM compound
Protocol: Assay 2. Stability of conjugates in Simulated Intestinal Fluid (SIF). This assay was used to assess the stability of a conjugate in a small intestine.
Phosphate buffer was prepared by dissolving 0.42 g of sodium hydroxide pellets and 3.95 g of monobasic sodium phosphate monohydrate and 6.19 g of sodium chloride in ultrapure water (MilliQ®, Millipore Sigma, Darmstadt, Germany). The pH was adjusted to 6.7 using aq. HCl and aq. NaOH, as necessary, and the solution was diluted with ultrapure water to produce 1 L of the pH 6.7 buffer.
112 mg FaSSIF powder (Biorelevant™, London, UK) was dissolved in 50 mL of the pH 6.7 buffer. 2 to 3 mL of the resulting solution were then added to 500 mg pancreatin (Millipore Sigma, Darmstadt, Germany). The resulting mixture was agitated by finger tapping the vessel containing the mixture until milky suspension formed. At this time, the remainder of the 50 mL FaSSiF/pH 6.7 buffer solution was added. The resulting suspension was flipped upside down 10 times to produce SIF, which was used fresh.
as §1, with “SIF media” for “SGF Media”, “produce” for “generate”, “mixture with a tested” for “total”, “agitated” for “mixed”, “rates” for “rates in SGF.”

[3] = In vitro Colonic Material Stability Assay; type: in vitro ADME; details: colonic material slurry in YCFAC media, anaerobic, 1 or 10 μM
Protocol: Assay 3. In vitro Colonic Material Stability Assay. This assay was used to assess the stability of a conjugate in a large intestine. All experiments were performed in an anaerobic chamber containing 90% nitrogen, 5% hydrogen and 5% carbon dioxide. Colonic material was resuspended as a slurry (15% w/v final concentration) in pre-reduced, anaerobically sterilized dilution blanks (Anaerobe Systems AS-908). The colonic material was then inoculated into 96 well plates containing YCFAC media (Anaerobe Systems AS-680) or other suitable media (6.7 μL slurry into 1 mL total media). Compounds or groups of compounds were added to each individual well to reach a final analyte concentration of 1 or 10 μM, and the material was mixed by pipetting. Sample was removed after set timepoints (0, 120, 240, 480, 1440, 2880 minutes after initiation of the assay), quenched with acetonitrile containing internal standard, and analyzed by LC/MS.

[4] = Gastrointestinal (GI) Exposure to Propionate (Study 1); type: in vivo, CD-1 mice; details: mouse; for Propionate-d3 AUClast / Propionate-d3 Tmax: single oral dose: Propionate-d3 62 mg/kg, Compound 3-d12 110 mg/kg, Compound 6-d9 91 mg/kg
Protocol: In order to measure propionate concentrations along the GI track, CD-1 mice were orally administered a single dose of deuterated sodium propionate, Compound 3 comprising deuterated propionate, or Compound 6 comprising deuterated propionate (Propionate-d3, Compound 3-d12, and Compound 6-d9, respectively; suspension, 1% (w/v) methyl cellulose in deionized water). The amounts of compound dosed were normalized to provide approximately equimolar amounts of […] (Propionate-d3 at 62 mg/kg, Compound 3-d12 at 110 mg/kg, and Compound 6-d9 at 91 mg/kg). […] Blood samples were collected in K2EDTA tubes and stored on wet ice no more than 30 min and then further processed to plasma. GI samples were placed into separate labeled, pre-weighted collection tubes and frozen before analysis. Brain samples were homogenized prior to analysis. Samples were subsequently worked up and analyzed by LC-MS/MS for deuterated propionate concentration. Propionate concentrations versus time for different tissues are depicted in FIGS. 4A-4H and 5A-5C.

Structure (SMILES) | Assay 1 (SGF) (% Remaining @ 1 hour) [1] | Assay 2 (SIF) (% @ Remaining 4 hours) [2] | Assay 3 (% Remaining at 24 h) [3] | further results
CCC(=O)OC[C@H]1O[C@H](OC(=O)/C=C/C(=O)OC)[C@H](OC(=O)CC)[C@@H](OC(=O)CC)[C@@H]1OC(=O)CC [Compound 4, Methyl ((2R,3R,4S,5R,6R)-3,4,5-tris(propionyloxy)-6-((propionyloxy)methyl)tetrahydro-2H-pyran-2-yl) fumarate] | B (B: 25-75% of the tested compound remaining) | C (C: >75% of the tested compound remaining) | B (B: 25-75% of the tested compound remaining) | 
CCC(=O)O[C@@H]1[C@@H](OC(=O)CC)[C@H](OC(=O)/C=C/C(=O)OC)OC[C@@H]1OC(=O)CC [Compound 5, Methyl ((2S,3R,4S,5S)-3,4,5-tris(propionyloxy)tetrahydro-2H-pyran-2-yl) fumarate] | C (C: >75% of the tested compound remaining) | C (C: >75% of the tested compound remaining) | A (A: <25% of the tested compound remaining) | 
CCCC(=O)O[C@@H]1[C@@H](OC(=O)CCC)[C@H](OC(=O)/C=C/C(=O)OC)OC[C@H]1OC(=O)CCC [Compound 7, Methyl ((2S,3R,4S,5R)-3,4,5-tris(butyryloxy)tetrahydro-2H-pyran-2-yl) fumarate] | C (C: >75% of the tested compound remaining) | A (A: <25% of the tested compound remaining) | C (C: >75% of the tested compound remaining) | 
CCC(=O)O[C@@H]1[C@@H](OC(=O)CC)[C@@H](OC(=O)/C=C/C(=O)OC)OC[C@H]1OC(=O)CC [Compound 16, Methyl ((2R,3R,4S,5R)-3,4,5-tris(propionyloxy)tetrahydro-2H-pyran-2-yl) fumarate] |  |  | C (C: >75% of the tested compound remaining) | 
CCC(=O)OC[C@H]1O[C@@H](OC(=O)/C=C/C(=O)OC)[C@H](N)[C@@H](OC(=O)CC)[C@@H]1OC(=O)CC.Cl [Compound 27, (2S,3R,4R,5S,6R)-2-(((E)-4-methoxy-4-oxobut-2-enoyl)oxy)-4,5-bis(propionyloxy)-6-((propionyloxy)methyl)tetrahydro-2H-pyran-3-aminium Chloride] |  | C (C: >75% of the tested compound remaining) | B (B: 25-75% of the tested compound remaining) | 
CCCC(=O)OC[C@H]1O[C@H](OC(=O)/C=C/C(=O)OC)[C@H](N)[C@@H](OC(=O)CCC)[C@@H]1OC(=O)CCC.Cl [Compound 28, (2R,3R,4R,5S,6R)-4,5-bis(butyryloxy)-6-((butyryloxy)methyl)-2-(((E)-4-methoxy-4-oxobut-2-enoyl)oxy)tetrahydro-2H-pyran-3-aminium Chloride] |  | B (B: 25-75% of the tested compound remaining) | B (B: 25-75% of the tested compound remaining) | 
COC(=O)/C=C/C(=O)Oc1cc(OC(=O)/C=C/C(=O)OC)c2c(c1)O[C@H](c1ccc(OC(=O)/C=C/C(=O)OC)c(OC(=O)/C=C/C(=O)OC)c1)[C@H](OC(=O)/C=C/C(=O)OC)C2 [Compound 53, O4-[2-[(E)-4-methoxy-4-oxo-but-2-enoyl]oxy-4-[(2R,3R)-3,5,7-tris[[(E)-4-methoxy-4-oxo-but-2-enoyl]oxy]chroman-2-yl]phenyl] O1-methyl (E)-but-2-enedioate] | C (C: >75% of the tested compound remaining) | A (A: <25% of the tested compound remaining) |  | 
COC(=O)/C=C/C(=O)Oc1ccc(-c2oc3cc(OC(=O)/C=C/C(=O)OC)cc(OC(=O)/C=C/C(=O)OC)c3c(=O)c2OC(=O)/C=C/C(=O)OC)cc1 [Compound 54, 01-methyl O4-[4-[3,5,7-tris[[(E)-4-methoxy-4-oxo-but-2-enoyl]oxy]-4-oxo-chromen-2-yl]phenyl] (E)-but-2-enedioate] | C (C: >75% of the tested compound remaining) | A (A: <25% of the tested compound remaining) |  | 
COC(=O)/C=C/C(=O)Oc1cc(OC(=O)/C=C/C(=O)OC)c2c(=O)c(OC(=O)/C=C/C(=O)OC)c(-c3ccc(OC(=O)/C=C/C(=O)OC)c(OC(=O)/C=C/C(=O)OC)c3)oc2c1 [Compound 55, O4-[2-[(E)-4-methoxy-4-oxo-but-2-enoyl]oxy-4-[3,5,7-tris[[(E)-4-methoxy-4-oxo-but-2-enoyl]oxy]-4-oxo-chromen-2-yl]phenyl] O1-methyl (E)-but-2-enedioate] | C (C: >75% of the tested compound remaining) | A (A: <25% of the tested compound remaining) |  | 
COC(=O)/C=C/C(=O)Oc1ccc(-c2oc3cc(OC(=O)/C=C/C(=O)OC)cc(OC(=O)/C=C/C(=O)OC)c3c(=O)c2O)cc1 [Compound 56, O4-[4-[3-hydroxy-5,7-bis[[(E)-4-methoxy-4-oxo-but-2-enoyl]oxy]-4-oxo-chromen-2-yl]phenyl] O1-methyl (E)-but-2-enedioate] | C (C: >75% of the tested compound remaining) | A (A: <25% of the tested compound remaining) |  | 
[2H]C([2H])([2H])CC(=O)[O-].[Na+] [Propionate-d3, sodium propionate-d3, reference compound] |  |  |  | Propionate-d3 AUClast ([4]; Brain): below quantitative; Propionate-d3 Tmax ([4]; Brain): 15 min; Propionate-d3 AUClast ([4]; Cecum): 76 nmol·h/g; Propionate-d3 Tmax ([4]; Cecum): 15 min; Propionate-d3 AUClast ([4]; Distal Colon): 31 nmol·h/g; Propionate-d3 Tmax ([4]; Distal Colon): 15 min; Propionate-d3 AUClast ([4]; Distal Intestine): 6.6 nmol·h/g; Propionate-d3 Tmax ([4]; Distal Intestine): 30 min; Propionate-d3 AUClast ([4]; Proximal Colon): 46 nmol·h/g; Propionate-d3 Tmax ([4]; Proximal Colon): 15 min; Propionate-d3 AUClast ([4]; Proximal Intestine): 13 nmol·h/g; Propionate-d3 Tmax ([4]; Proximal Intestine): 15 min; Propionate-d3 AUClast ([4]; Stomach): 7020 nmol·h/g; Propionate-d3 Tmax ([4]; Stomach): 15 min; region where the highest concentrations (Cmax) of propionate-d3 were observed ([4]; single oral dose, GI tissues): stomach
